In EP3324923B1, “COMPOSITIONS AND METHODS USING PALYTHINE” (King's College London, priority 2015, dated 2017):

Experiments:
HaCaT cells = assay: Reactive oxygen species detection by FACS analysis (carboxy-H2DCFDA), Example 8; type: cell-based, human; settings: for Median corrected Average: FACS Analysis - Reactive Oxygen Species
Protocol: Intracellular ROS generation was measured using the detection agent 5-(and-6)-carboxy-2',7'- dichlorodihydrofluorescein diacetate (carboxy-H2DCFDA). […] More specifically, total intracellular ROS generation was studied using 5-(and-6)-carboxy-2',7'-dichlorodihydrofluorescein diacetate (carboxy-H2DCFDA).
Powdered sunscreens were dissolved in PBS (Sigma-Aldrich, UK) at a concentration in which they can dissolve fully (0-0.3%). They were then applied (200ul/well) to wells of a 24 well plate containing a washed monolayer of cells. Cells were then irradiated and the sunscreen removed and washed post treatment.
Irradiation was carried out on cells in monolayers at a distance of 3 cm (Solar Simulator) in cold PBS or PBS + sunscreen. The plate was always placed on a cooling platform at 4°C to avoid overheating of the cells. Unirradiated samples were maintained in PBS for the same time and temperature as irradiated samples.
Detection of reactive oxygen species was performed by FACS analysis using 5-(and 6-)-carboxy-2,',7'-dichlorodihydrofluorescein diacetate (Carboy-H2-DCFDA) (Invitrogen, Paisley, UK). Carboy-H2-DCFDA is a non-fluorescent dye that is activated into a fluorescent dye by ROS cleaving acetate groups from the molecule.
Cells were grown in a 12 well plate washed twice in PBS and irradiated +/- sunscreens. Control cells were unirradiated and positive controls were treated with 0.03% hydrogen peroxide for 5 minutes. Cells were washed again twice in PBS and then 1ML of Carboy-H2-DCFDA diluted in PBS to a concentration of 5uM was added to each well and were incubated for 2 minutes in a cell culture incubator in the dark (95% air, 5% CO2, 37°C, humidified). Each well was then washed twice with PBS to remove any excess dye.
Cells were then trypsinised, centrifuged at 400g for 4 minutes at 4°C and resuspended in 0.5ml of PBS + 0.1%w/v BSA and transferred to FACS tubes. Samples were then analysed with a Becton Dickson CANTO 3. The viable proportion of the cell population was quantified by the addition of 2.5ug/ml of propidium iodide immediately before the analysis.

HaCaT keratinocytes = assay: Cell viability by neutral red uptake assay after irradiation; type: cell-based, human; settings: 20J/cm2 of SSR; 0.3 %, 4 % or 10 % (w/v) palythine; 24 hrs later; n=3; p=<0.0001
Protocol: All assays were performed on HaCat cells grown as a 70-80 % confluent monolayer in multiwell plates. They were washed three times in PBS and covered with palythine dissolved in PBS at differing concentrations (0, 0.1, 0.3 %, 4 % and 10 % w/v). The cells were then irradiated with either SSR or UVA radiation (5-20 J/cm^2 or 20 J/cm^2 respectively). After irradiation the palythine solution was removed and the cells washed a further three times and replaced in media or processed immediately depending on the experimental design.
Cell viability was measured 24 hours post irradiation using the neutral red uptake assay. Neutral red solution (4µgml^-1 in growth medium) (Sigma, UK) was added to the cells and they were incubated at 37 °C, 5 % CO2 for 2 hrs. Cells were washed three times in PBS to remove excess neutral red solution and then the destain solution (50 % v/v ethanol, 49 % v/v ddH2O, 1 % v/v glacial acetic acid) was added. Optical density was measured at 540 nm.
HaCaT keratinocytes were untreated, exposed to 20J/cm2 of SSR with PBS alone, 0.3 % (w/v), 4 % (w/v) or 10 % (w/v) of palythine or 10 % (w/v) palythine without exposure to UVR. Cell viability was measured 24 hrs later by the neutral red assay. Columns represent the mean ± SD (n=3).

[1] = Photostability under increasing doses of solar simulated radiation (absorbance); type: physicochemical
Protocol: palythine was extracted from the red algae Palmaria decipiens using a methanol extraction (Confirmed by HPLC & LC-MS). The absorbance profile was determined and then the extract was exposed to increasing doses of solar simulated radiation (SSR) from a solar simulator (conforming to COLIPA standards). The absorbance profile was measured to determine photostability. Compositions according to the invention (in this example solutions of palythine) were prepared at different palythine concentrations (0.3% to 10%), as well as controls comprising 0% palythine, and HaCat keratinocytes were irradiated with SSR or UVA radiation through the solutions, which were placed on top of the cells.
Palythine was exposed to increasing doses of solar simulated radiation and absorbance measured. The absorbance spectrum of the palythine was measured between 280-400 nm using a Spectra Max 384 Plus (Molecular Devices; California, USA) spectrophotometer. Referring to figure 18, we show the photostability of palythine after exposure to increasing doses of solar simulated radiation. Palythine (0.0001% w/v palythine extracted from red algae Chondrus yendoi in PBS) was exposed to increasing doses of solar simulated radiation and the absorbance was measured to determine photostability.

For `COC1=C(NCC(=O)O)CC(O)(CO)CC1=N` (stereo not drawn) [palythine], the “Median corrected Average” value (HaCaT cells; 0.1% palythine) was 36.35, the “Median corrected Average” value (HaCaT cells; 0.3% palythine) was 33.9 and the “total intracellular ROS generated after exposure to UVA and UVB” value (HaCaT cells; carboxy-H2DCFDA) was “significantly reduce”. The “protection against UVR induced cell death (cell viability)” value (HaCaT keratinocytes) was “significant protection”, the photostability ([1]; after 40SED of solar simulated radiation, 0.0001% w/v palythine from Chondrus yendoi in PBS, absorbance 280-400 nm) was “extremely photostable with negligible photodegradation” and the photostability ([1]; after 60 standard erythema doses (SED) of SSR, palythine from Palmaria decipiens) was “extremely photostable”.
